Assay results: ChEMBL document CHEMBL1201862, “PubChem BioAssay data set” (2004)
Calls of active or inactive are those of the source.

What was measured:
[1] = biological target: Peroxisome proliferator-activated receptor gamma/Nuclear receptor coactivator 2 (Homo sapiens, UniProt P37231); type: functional;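 also: agonist potency for raising coactivator recruitment to the receptor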
[2] = biological target: Peroxisome proliferator-activated receptor gamma/Nuclear receptor coactivator 1 (Homo sapiens, UniProt P37231); type: functional;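 also: agonist potency as compounds enhance coactivator SRC-1 recruitment to PPARgamma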
[3] = biological target: Peroxisome proliferator-activated receptor gamma/Nuclear receptor coactivator 3 (Homo sapiens, UniProt P37231); type: functional;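 also: agonist potency for raising coactivator recruitment to the receptor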
[4] = biological target: T1, Sentrin-specific protease 6 (Homo sapiens, UniProt Q9GZR1); experiment: SAR Analysis of small molecule inhibitors of Sentrin-specific protease 6 (SENP6) using a Luminescent assay. [Related pubchem assays (depositor defined):AID2582, AID2599]; type: functional
T1 sequence (Q9GZR1 whole entry): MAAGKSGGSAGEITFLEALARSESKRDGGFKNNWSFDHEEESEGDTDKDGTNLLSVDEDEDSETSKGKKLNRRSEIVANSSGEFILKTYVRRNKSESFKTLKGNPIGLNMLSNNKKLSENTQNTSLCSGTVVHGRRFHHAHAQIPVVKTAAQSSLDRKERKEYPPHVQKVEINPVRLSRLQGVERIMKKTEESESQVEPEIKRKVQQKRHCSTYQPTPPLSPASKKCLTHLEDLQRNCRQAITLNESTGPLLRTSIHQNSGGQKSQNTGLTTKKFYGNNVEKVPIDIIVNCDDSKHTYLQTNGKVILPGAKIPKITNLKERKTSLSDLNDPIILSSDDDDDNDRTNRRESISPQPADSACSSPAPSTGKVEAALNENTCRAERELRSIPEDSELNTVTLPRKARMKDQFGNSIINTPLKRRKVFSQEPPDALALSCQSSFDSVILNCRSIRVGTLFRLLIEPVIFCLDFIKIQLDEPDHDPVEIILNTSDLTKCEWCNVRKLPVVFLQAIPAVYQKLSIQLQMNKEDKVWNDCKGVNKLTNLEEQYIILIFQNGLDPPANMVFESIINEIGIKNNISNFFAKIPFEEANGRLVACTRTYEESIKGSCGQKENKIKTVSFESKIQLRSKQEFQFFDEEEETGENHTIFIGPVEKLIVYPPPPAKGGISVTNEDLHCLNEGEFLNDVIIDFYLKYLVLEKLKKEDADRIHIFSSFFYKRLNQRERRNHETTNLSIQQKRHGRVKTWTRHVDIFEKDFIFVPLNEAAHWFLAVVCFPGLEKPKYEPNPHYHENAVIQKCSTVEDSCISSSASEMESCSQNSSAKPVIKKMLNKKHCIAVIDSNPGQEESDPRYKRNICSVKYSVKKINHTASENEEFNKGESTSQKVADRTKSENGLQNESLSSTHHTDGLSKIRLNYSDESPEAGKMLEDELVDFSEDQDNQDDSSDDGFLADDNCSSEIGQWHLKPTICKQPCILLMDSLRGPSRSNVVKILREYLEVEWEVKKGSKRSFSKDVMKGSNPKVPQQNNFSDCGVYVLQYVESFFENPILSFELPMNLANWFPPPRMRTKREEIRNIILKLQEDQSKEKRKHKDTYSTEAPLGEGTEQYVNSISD

[5] = biological target: T2, Sentrin-specific protease 8 (Homo sapiens, UniProt Q96LD8); experiment: inhibition of human SENP8 cleavage activity – biochemical, luminescence, SAR follow-up (AID 504501); type: functional
T2 sequence (Q96LD8 whole entry): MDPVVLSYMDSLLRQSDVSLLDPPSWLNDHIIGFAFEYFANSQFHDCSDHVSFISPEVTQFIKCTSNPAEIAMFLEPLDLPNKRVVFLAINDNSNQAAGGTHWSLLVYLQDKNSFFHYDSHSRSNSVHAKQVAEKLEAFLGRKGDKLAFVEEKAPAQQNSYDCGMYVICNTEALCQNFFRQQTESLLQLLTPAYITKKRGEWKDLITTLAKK

[6] = biological target: T3, Caspase-3 (Homo sapiens, UniProt P42574); experiment: SAR Analysis of small molecule inhibitors of Sentrin-specific proteases (SENPs) using a Caspase-3 Selectivity assay. [Related pubchem assays (depositor defined):AID2540, AID2599, AID434973, AID489001]; type: functional
T3 sequence (P42574 whole entry): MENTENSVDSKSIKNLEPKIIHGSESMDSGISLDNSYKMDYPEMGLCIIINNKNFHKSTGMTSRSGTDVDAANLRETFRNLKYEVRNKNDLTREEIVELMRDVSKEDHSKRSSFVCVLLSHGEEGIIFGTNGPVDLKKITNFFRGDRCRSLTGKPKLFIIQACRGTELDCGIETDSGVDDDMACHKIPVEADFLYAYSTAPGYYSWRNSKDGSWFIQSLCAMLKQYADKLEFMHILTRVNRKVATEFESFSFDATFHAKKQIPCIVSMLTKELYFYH

[7] = biological target: T4, Estrogen receptor beta (Homo sapiens, UniProt Q92731); experiment: blockers of SRC-3 recruitment to ERβ – biochemical, ELISA, streptavidin-HRP readout, orthogonal assay, confirmation (AID 1060)
[8] = biological target: T4, Estrogen receptor beta
[9] = biological target: T5, Sentrin-specific protease 7 (Homo sapiens, UniProt Q9BQF6); experiment: inhibition of human SENP7 cleavage activity – biochemical, luminescence, SAR follow-up (AID 504497); type: functional
T5 sequence (Q9BQF6 whole entry): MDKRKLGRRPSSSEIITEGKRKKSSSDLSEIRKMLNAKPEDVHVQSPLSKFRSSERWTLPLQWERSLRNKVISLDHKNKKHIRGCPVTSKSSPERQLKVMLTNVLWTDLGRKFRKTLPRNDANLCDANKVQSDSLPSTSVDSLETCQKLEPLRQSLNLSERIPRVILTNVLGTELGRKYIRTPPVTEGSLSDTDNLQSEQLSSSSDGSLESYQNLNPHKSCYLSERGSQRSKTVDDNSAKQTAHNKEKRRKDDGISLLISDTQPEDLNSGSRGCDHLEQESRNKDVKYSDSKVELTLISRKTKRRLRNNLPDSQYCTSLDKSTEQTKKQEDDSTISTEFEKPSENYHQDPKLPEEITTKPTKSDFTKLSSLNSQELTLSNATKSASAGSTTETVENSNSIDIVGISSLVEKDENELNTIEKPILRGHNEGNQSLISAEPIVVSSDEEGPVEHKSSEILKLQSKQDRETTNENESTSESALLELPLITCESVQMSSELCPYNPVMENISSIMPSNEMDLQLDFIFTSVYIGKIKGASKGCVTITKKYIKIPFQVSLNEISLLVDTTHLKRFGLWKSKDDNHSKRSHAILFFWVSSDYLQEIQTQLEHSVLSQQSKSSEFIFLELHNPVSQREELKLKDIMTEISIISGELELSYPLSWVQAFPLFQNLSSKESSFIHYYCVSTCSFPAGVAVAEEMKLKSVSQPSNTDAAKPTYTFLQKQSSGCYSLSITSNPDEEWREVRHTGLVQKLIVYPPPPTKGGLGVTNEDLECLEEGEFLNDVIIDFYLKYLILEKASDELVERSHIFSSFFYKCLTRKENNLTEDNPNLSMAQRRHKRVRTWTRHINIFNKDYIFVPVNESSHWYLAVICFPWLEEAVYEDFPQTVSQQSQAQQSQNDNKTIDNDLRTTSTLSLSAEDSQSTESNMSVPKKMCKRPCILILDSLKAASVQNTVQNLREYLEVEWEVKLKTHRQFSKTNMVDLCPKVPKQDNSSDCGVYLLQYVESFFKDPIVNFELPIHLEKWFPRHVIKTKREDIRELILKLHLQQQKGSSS

[10] = A Cell Based Secondary Assay To Explore Cytotoxicity of Compounds that Sensitize Mycobacterium Tuberculosis to Beta-Lactam Antibiotics.; type: functional
[11] = biological target: T6, Polyadenylate-binding protein 1 (Homo sapiens, UniProt P11940); experiment: MLLE domain peptide-binding blockers, IC50 – biochemical, fluorescence polarization, FITC-PAM2 peptide, dose response (AID 602259); type: functional; conditions: read-out: IC50_Mean
[12] = biological target: T6, Polyadenylate-binding protein 1; experiment: MLLE binding blockers, Cy5 peptide tracer – biochemical, fluorescence polarization, Cy5-PAM2 peptide, secondary, miRNA deadenylation inhibitor project, dose response (AID 602260); type: functional; conditions: read-out: IC50_Mean
[13] = biological target: T7, Protein RecA (Mycobacterium tuberculosis, UniProt P9WHJ3); experiment: Fluorescence Cell-Free Homogeneous Dose Retest to Identify Inhibitors of RecA-Intein Splicing Activity. [Related pubchem assays (depositor defined):AID2097, AID2223, AID489010, AID492950]; type: functional
T7 sequence (P9WHJ3 whole entry): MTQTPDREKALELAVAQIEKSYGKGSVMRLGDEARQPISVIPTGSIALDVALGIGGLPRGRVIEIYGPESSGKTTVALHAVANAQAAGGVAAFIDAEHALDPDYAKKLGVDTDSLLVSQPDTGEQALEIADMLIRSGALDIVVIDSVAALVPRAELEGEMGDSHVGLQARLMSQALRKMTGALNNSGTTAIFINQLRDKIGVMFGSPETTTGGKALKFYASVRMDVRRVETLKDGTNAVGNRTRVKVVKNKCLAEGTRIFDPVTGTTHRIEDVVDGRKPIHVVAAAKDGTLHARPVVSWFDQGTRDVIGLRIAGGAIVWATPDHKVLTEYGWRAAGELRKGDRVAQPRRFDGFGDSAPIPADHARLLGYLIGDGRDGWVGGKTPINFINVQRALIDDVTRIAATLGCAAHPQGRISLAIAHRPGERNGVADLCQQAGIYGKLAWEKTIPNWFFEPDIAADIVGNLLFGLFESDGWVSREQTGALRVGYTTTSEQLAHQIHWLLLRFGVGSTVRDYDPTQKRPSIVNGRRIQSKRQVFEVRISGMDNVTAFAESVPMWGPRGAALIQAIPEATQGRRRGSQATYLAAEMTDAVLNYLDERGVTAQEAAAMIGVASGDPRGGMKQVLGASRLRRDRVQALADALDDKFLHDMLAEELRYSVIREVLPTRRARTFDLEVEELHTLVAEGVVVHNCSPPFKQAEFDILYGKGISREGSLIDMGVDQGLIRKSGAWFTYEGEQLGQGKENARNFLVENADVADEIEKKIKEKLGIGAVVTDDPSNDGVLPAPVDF

[14] = biological target: Genome polyprotein (dengue virus type 2, UniProt P29990); experiment: flavivirus cap methylation enzyme inhibition – biochemical, confirmation dose response, primary screen (AID 588689); type: functional
[15] = biological target: T8, Replicative DNA helicase DnaB (Mycobacterium tuberculosis, UniProt P9WMR3); experiment: DnaB intein splicing inhibitors, dose response, biochemical, cell-free fluorescence (AID 449749); type: functional
T8 sequence (P9WMR3 whole entry): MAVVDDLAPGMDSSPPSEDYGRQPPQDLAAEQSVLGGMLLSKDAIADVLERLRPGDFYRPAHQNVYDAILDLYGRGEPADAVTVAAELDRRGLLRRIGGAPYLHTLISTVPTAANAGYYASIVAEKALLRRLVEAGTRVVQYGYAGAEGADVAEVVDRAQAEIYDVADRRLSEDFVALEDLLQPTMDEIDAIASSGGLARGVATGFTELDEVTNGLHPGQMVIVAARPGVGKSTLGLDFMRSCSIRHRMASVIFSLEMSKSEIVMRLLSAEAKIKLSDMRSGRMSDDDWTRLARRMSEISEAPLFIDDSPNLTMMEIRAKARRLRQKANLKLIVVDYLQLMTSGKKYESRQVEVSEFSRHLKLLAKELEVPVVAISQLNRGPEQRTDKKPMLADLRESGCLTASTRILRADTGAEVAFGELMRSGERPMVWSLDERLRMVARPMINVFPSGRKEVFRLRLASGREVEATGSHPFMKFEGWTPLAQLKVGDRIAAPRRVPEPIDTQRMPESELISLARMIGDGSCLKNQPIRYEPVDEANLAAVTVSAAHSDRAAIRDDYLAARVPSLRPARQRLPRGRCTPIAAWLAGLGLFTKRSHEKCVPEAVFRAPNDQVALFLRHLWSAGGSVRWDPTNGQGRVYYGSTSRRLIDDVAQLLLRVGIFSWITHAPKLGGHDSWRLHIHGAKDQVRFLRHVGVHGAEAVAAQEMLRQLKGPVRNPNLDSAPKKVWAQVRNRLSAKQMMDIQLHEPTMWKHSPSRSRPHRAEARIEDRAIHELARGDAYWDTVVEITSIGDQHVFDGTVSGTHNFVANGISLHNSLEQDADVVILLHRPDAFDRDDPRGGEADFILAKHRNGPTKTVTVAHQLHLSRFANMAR

[16] = biological target: T9, Mannose-6-phosphate isomerase (Homo sapiens, UniProt P34949); experiment: MPI enzyme activity inhibition – biochemical, fluorescence intensity, coupled assay, primary screen (AID 1209)
T9 sequence (P34949 whole entry): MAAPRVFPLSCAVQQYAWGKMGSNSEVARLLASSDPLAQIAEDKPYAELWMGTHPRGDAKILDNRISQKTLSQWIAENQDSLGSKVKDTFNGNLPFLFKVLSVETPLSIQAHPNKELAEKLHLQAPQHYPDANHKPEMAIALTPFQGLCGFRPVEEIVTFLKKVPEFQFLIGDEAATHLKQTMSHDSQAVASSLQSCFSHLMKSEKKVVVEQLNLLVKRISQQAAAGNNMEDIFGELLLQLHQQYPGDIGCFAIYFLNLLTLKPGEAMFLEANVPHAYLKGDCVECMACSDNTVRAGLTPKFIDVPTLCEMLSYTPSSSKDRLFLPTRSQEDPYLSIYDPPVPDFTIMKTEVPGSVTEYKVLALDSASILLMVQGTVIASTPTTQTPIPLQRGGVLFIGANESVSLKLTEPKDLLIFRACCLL

T4 sequence (Q92731 whole entry): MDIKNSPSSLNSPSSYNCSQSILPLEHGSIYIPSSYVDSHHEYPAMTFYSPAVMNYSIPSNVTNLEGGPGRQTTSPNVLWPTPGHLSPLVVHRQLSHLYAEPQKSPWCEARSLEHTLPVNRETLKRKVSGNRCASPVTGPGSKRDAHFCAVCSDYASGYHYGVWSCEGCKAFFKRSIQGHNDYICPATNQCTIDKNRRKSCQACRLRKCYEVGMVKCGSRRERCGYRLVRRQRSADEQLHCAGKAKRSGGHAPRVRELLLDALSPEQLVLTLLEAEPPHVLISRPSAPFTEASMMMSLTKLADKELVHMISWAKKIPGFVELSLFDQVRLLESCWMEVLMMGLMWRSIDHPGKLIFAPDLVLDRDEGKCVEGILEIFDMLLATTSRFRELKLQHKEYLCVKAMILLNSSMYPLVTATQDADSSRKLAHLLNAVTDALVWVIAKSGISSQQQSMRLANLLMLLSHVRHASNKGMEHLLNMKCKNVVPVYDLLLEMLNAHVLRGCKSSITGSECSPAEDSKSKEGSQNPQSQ
Sequence of Peroxisome proliferator-activated receptor gamma/Nuclear receptor coactivator 1 (P37231 whole entry): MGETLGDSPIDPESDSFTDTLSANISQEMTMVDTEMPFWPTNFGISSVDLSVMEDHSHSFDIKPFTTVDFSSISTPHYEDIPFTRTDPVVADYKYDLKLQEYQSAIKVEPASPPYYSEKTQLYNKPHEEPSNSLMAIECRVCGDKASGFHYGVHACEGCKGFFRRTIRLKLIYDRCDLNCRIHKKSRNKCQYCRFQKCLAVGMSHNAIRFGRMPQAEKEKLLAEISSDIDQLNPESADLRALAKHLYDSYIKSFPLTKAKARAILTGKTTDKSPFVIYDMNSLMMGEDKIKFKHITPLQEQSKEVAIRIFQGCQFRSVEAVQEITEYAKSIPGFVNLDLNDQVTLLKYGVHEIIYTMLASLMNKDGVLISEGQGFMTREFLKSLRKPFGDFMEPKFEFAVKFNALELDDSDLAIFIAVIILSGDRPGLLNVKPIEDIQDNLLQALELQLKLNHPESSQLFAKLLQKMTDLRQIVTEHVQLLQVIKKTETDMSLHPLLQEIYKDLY
Sequence of Peroxisome proliferator-activated receptor gamma/Nuclear receptor coactivator 1 (Q15788 whole entry, further chain): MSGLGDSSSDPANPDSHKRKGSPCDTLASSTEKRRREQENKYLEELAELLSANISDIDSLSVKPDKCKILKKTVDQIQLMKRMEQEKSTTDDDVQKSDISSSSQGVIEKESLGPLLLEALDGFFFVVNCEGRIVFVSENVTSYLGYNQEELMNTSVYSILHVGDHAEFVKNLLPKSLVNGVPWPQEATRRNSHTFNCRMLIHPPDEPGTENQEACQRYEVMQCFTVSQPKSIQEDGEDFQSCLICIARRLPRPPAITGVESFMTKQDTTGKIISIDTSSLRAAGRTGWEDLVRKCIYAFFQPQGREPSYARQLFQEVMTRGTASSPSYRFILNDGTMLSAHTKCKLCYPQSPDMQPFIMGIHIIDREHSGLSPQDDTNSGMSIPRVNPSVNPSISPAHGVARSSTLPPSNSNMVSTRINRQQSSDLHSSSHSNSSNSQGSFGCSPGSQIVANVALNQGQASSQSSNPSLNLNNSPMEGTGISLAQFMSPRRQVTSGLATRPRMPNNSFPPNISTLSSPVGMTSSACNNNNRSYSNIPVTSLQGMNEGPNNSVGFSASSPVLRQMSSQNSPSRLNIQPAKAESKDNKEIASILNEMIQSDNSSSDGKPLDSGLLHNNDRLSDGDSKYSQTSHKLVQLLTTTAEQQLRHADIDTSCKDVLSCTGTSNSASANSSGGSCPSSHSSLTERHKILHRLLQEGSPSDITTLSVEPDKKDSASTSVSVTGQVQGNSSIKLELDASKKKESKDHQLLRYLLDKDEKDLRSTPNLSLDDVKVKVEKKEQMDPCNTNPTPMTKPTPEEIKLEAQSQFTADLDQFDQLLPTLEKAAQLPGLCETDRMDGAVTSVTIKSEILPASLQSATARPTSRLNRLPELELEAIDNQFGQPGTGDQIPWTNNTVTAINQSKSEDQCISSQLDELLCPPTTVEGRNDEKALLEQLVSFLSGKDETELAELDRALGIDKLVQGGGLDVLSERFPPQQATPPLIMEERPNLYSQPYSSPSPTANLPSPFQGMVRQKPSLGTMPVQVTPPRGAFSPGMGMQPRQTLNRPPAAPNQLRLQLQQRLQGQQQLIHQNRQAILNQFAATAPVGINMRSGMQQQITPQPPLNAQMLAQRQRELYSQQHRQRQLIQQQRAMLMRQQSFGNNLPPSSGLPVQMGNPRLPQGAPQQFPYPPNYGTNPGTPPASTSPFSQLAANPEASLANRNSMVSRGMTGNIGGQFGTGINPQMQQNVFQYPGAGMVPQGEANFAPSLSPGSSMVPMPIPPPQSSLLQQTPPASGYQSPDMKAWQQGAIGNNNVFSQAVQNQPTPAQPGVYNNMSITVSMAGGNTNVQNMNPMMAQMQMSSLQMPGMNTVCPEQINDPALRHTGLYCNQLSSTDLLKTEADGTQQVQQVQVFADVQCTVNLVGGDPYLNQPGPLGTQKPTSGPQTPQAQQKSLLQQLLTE
Sequence of Peroxisome proliferator-activated receptor gamma/Nuclear receptor coactivator 2 (P37231 whole entry): as the sequence (P37231 whole entry) above
Sequence of Peroxisome proliferator-activated receptor gamma/Nuclear receptor coactivator 2 (Q15596 whole entry, further chain): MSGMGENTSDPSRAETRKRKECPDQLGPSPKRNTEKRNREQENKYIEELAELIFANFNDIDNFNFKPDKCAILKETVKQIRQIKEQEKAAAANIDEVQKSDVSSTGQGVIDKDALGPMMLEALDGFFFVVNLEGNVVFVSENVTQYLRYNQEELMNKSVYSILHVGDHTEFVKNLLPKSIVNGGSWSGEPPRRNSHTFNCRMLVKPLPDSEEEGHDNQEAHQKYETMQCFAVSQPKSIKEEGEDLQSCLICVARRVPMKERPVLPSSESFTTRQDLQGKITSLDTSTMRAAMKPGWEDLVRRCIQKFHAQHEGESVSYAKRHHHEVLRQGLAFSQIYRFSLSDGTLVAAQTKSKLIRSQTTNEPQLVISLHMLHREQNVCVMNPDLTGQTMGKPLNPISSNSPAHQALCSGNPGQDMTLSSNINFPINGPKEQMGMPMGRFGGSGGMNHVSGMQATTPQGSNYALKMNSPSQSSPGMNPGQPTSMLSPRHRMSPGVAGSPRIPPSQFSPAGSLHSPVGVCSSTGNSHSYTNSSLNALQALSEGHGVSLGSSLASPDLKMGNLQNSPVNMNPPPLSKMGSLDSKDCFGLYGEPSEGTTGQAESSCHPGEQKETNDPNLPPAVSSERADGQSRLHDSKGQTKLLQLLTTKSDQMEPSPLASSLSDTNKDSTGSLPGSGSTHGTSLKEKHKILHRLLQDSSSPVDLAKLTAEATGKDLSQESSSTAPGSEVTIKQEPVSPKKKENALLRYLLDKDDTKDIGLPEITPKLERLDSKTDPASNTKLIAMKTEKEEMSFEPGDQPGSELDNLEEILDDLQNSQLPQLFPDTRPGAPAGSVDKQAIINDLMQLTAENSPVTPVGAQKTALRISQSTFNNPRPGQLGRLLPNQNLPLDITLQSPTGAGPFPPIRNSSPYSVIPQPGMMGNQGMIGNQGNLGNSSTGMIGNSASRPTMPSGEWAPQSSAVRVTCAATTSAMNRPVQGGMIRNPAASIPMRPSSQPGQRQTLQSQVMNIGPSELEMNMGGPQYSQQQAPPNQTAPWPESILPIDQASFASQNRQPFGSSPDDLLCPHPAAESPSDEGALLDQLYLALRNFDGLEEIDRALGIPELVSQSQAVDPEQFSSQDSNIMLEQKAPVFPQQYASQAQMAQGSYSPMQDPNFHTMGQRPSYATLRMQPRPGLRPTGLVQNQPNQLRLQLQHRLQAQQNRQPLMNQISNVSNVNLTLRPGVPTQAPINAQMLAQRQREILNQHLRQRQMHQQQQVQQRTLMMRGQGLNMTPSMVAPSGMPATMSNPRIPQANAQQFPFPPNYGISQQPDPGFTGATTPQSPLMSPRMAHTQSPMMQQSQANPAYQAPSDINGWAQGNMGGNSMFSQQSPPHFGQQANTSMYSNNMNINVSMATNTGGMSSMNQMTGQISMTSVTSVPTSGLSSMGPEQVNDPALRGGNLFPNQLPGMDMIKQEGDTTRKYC
T6 sequence (P11940 whole entry, the tested form may be a part): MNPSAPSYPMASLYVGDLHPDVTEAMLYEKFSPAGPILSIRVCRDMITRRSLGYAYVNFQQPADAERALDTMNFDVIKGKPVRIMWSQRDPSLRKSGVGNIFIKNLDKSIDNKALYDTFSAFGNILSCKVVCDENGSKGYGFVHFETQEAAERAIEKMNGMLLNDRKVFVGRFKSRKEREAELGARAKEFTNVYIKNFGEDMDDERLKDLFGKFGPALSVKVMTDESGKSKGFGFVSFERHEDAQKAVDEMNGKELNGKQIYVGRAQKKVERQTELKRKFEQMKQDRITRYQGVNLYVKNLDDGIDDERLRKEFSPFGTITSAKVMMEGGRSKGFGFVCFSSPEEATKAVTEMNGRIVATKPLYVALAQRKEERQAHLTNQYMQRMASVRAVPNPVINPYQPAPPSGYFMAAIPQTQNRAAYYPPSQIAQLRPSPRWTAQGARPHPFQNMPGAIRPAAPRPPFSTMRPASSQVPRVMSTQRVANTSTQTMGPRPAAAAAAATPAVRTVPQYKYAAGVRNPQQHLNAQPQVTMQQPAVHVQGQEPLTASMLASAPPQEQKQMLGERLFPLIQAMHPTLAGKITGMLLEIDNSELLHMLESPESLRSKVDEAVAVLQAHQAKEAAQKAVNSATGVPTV

COc1cc2c(cc1OC)C(Nc1ccc(S(N)(=O)=O)cc1)=NC(C)(C)C2
EC50 [1]: > 79.4 µM (not active) | EC50 [2]: > 79.4 µM (not active) | EC50 [3]: > 79.4 µM (not active)

O=S(=O)(Nc1cccc(C(F)(F)F)c1)c1cnc[nH]1
EC50 [1]: > 79.4 µM (not active) | EC50 [2]: > 79.4 µM (not active) | EC50 [3]: > 79.4 µM (not active)

Cc1cc(C(=O)Nc2sc3c(c2C#N)CCC3)no1
IC50 [4]: > 99 µM (inactive) | IC50 [5]: > 99 µM (inactive) | IC50 [6]: 30.4 µM (active) | IC50 [7]: < 0.023 µM (not active) | IC50 [8]: 11.5 µM (active) | IC50 [9]: 52.7 µM (active)

COc1cc(-c2nc(S(=O)(=O)c3ccc(C)cc3)c(N3CCOCC3)o2)cc(OC)c1OC
CC50 [10]: > 40 µM (active) | IC50 [11]: > 66 µM (inactive) | IC50 [12]: > 66 µM (inactive)

CC1CC1C(=O)Nc1nc(-c2cccs2)c(-c2cccs2)s1 (stereo unspecified)
CC50 [10]: > 40 µM (active)

Cc1ccc(-n2nnnc2Sc2nc([N+](=O)[O-])nn2C)cc1
CC50 [10]: 16.5 µM (active)

O=C(O)CC1SC(N/N=C/c2ccc(-c3ccc(Cl)cc3[N+](=O)[O-])o2)=NC1=O (stereo unspecified)
EC50 [13]: 4.61 µM (active) | IC50 [14]: 34.8 µM (active) | AC50 [15]: > 380 µM (inactive) | IC50 [16]: > 50 µM (not active)
